According to patent publication US7169567B1, “Screening assay utilizing the PTH receptor” (The General Hospital Corporation, priority 1998, dated 2007):
“Also recorded” adds a separate entry of the source. Where no end group is shown, it is not given here.

Key:
Assay type in all cases: cell-based
[1] = test system: truncated rat PTH-1 receptor (rΔNt); test: cAMP response in COS-7 cells transiently transfected with truncated rat PTH-1 receptor (rΔNt); conditions: COS-7 cells, cAMP
Source text: (§1) FIG. 4. PTH Responses of Intact and Truncated PTH-1 Receptors in COS-7 Cells. Shown at the top are schematics of the intact (A) and truncated (B) rat PTH-1 receptors used for transient transfection of COS-7 cells, and subsequent cAMP response assays. The conserved extracellular cysteine residues are depicted as open circles and numbered according to sequence position, and the nine amino acids of the epitope tag (HA) in rWT-HA are shaded. The tics at residue 26 and 181 indicate the endpoints of the deletion in rΔNt. Based on the predicted signal peptide cleavage site at Ala-22, residues 23–25 in rΔNt are joined to residue 182. The cAMP responses of COS-7 cells expressing the intact receptor (C) and rΔNt (D) to rPTH(1–34) (J) or rPTH(1–14) (C) are also shown. The graphs show combined data (mean±s.e.m.) from five separate experiments, each performed in duplicate. […]
(§2) FIG. 6. Specificity of the Truncated Ligand and PTH Receptor. COS-7 cells transiently transfected with either rWT-HA (A), rΔNt (B), or the intact rat secretin receptor (C), were treated with the indicated peptides for 60 min at 22° C., and the resulting intracellular cAMP levels were quantified by RIA. Concentration of peptides present during the incubations were: rPTH(1–34), 0.1 mM; rPTH(1–14) 100 mM; secretin(1–27). […] Shown are data (mean±s.e.m.) from one experiment performed in duplicate, and this was repeated twice more with equivalent results.
(§3) For studies with the intact and truncated rat PTH-1 receptors, transient transfections of COS-7 cells were performed using DEAE-dextran as described previously (Bergwitz, C., et al., J. Biol. Chem. 272:28861–28868)). The construction and initial characterization of the pCDNA-1 based plasmids encodin either the intact or truncated rat PTH-1 receptor has been described previously (Lee, C., et al., Endocrinology 135(4):1488–1495)). […] The truncated rat PTH-1 receptor (rΔNt) is deleted for exons E1 through exon G (residues 26 to 181). Assuming that signal peptidase cleavage occurs between Ala-22 and Tyr-23 (Nielsen, H., et al., Protein Engineering 10:1–6 (1997)), rΔNt is predicted to have for its N-terminus residues Dautzenberg, F., et al., Proc. Natl. Acad. Sci. 95:4941–4946 (1998); Holtmann, M., et al., J. Biol. Chem. 270:14394–14398 (1995); DeAlmeida, V. and Mayo, K., Mol. Endo. 12:750–765 (1998)) joined to Glu-182 (FIG. 3B). COS-7 cells were transfected in 24-well plates when the cells were 85 to 95% of confluency, using 200 ng of plasmid DNA that was purified by cesium chloride/ethidium bromide gradient centrifugation for each well. Assays were conducted 72 to 96 hours after transfection. Under these conditions about ˜20% of the COS-7 cells become transfected and express about 5×10^6 surface PTH receptors per cell (Bergwitz, C., et al., J. Biol. Chem. 272:28861–28868)).
(§4) Intracellular cyclic AMP: Transfected COS-7 or HKRK-B7 cells were rinsed with 500 ml of binding buffer, (50 mM Tris-HCl, pH 7.7, 100 mM NaCl, 5 mM KCl, 2 mM CaC12, 5% heat-inactivated horse serum, 0.5% heat-inactivated fetal bovine serum) and 200 ml of IBMX buffer (DMEM containing 2 mM IBMX, 1 mg/ml bovine serum albumin, 35 mM Hepes-NaOH, pH 7.4) and […] of binding buffer or binding buffer containing various amounts of peptide were added. The plates were incubated for 60 minutes at room temperature. The buffer was then withdrawn and the cells were frozen on dry ice, treated with 0.5 ml of 50 mM HCl, and refrozen. After the thawing, the lysate was diluted 30-fold in dH20 and an aliquot was analyzed for cAMP content by determined radioimmunoassay using unlabeled cAMP as a standard.
(§5) Experiments utilized COS-7 cells transfected with either the intact rat PTH-1 receptor (rWT-HA, FIG. 4A) or a truncated rat PTH-1 receptor with most of the amino-terminal extracellular domain deleted (rΔNt, FIG. 4B).

[2] = biological target: T1, truncated rat PTH-1 receptor (rΔNt) (Rattus norvegicus, UniProt P25961, E586G); test: as above; conditions: for cAMP response of cells expressing rΔNt (in words): secretin(1–27) 1 mM
T1 construct: contains an open reading frame encoding a protein of about 435 amino acid residues; expressed in transfected cells; host or cells: COS-7, transient (DEAE-dextran), pCDNA-1 based plasmid
T1 sequence (P25961 with tags, fused parts or gaps E586G): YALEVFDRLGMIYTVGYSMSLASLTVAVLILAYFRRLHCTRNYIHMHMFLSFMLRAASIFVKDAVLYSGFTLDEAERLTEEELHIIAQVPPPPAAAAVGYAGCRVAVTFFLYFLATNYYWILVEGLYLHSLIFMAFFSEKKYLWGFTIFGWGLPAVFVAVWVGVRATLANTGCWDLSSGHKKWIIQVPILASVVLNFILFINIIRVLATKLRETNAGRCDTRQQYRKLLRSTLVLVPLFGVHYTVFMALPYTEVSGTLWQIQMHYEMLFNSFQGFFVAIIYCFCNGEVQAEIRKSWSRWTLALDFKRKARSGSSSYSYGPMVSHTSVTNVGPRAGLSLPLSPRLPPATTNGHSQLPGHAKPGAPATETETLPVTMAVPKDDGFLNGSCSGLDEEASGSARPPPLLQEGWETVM
Source text: as §1, §2, §3, §4, §5

[3] = test system: parental LLC-PK1 cells (no PTH receptors, endogenous calcitonin receptors); test: cAMP response in untransfected parental LLC-PK1 cells; conditions: untransfected LLC-PK1 cells expressing calcitonin receptor but no PTH receptors
Procedure: FIG. 2. cAMP-stimulating Activity of PTH Fragments in LLC-PK1 Cells. A) Rat PTH(1–34) analog or amino-terminal rPTH fragments were tested for cAMP-stimulating activity in an LLC-P1-derived cell line (HKRK-B7) stably transfected with the human PTH-1 receptor. Cells were treated with peptide at the indicated doses for 60 min at 22° C. Intracellular cAMP was measured by RIA, as described in Experimental Procedures. Shown are combined data (mean±s.e.m.) from 3 separate experiments, each performed in duplicate. B) HKRK-B7 cells, or untransfected LLC-PK1 were treated with rPTH(1–34) or rPTH(1–14), and intracellular cAMP was measured. Shown are data (mean±s.e.m.) from a single representative experiment performed in duplicate.
as §4, with “The buffer was then withdrawn and the cells were frozen on dry ice, treated with 0.5 ml of 50 mM HCl, and refrozen.” left out, “standard. […]” for “standard.”

Molecule	potency/activity with rΔNt compared with rWT-HA (in words) [1]	potency relative to PTH(1–34) with rΔNt ([2]; COS-7 cells transfected with rΔNt)	cAMP response of cells expressing rΔNt (in words) [2]	cAMP responsiveness of parental LLC-PK1 cells [3]	decrease in potency with rΔNt as compared to potency with rWT-HA [1]	greater potency with rΔNt in comparison to the potency of PTH(1–14) ([2]; COS-7 cells, cAMP)
PTH(1–14): Amino-terminal peptide fragment based on the rat PTH sequence, residues 1–14, C-terminally amidated (AVSEIQLMHNLGKH-NH2)	equipotent with the two receptors; also recorded: equivalent activity; also recorded: not affected	only two orders of magnitude weaker	responded	did not activate; also recorded: unresponsive		
CCCC[C@H](NC(=O)[C@H](CCCNC(=N)N)NC(=O)[C@H](CCC(=O)O)NC(=O)[C@@H](NC(=O)[C@H](CO)NC(=O)[C@H](C)NC(=O)[C@H](CC(C)C)NC(=O)[C@H](Cc1c[nH]cn1)NC(=O)[C@H](CCCCN)NC(=O)CNC(=O)[C@H](CC(C)C)NC(=O)[C@H](CC(N)=O)NC(=O)[C@H](Cc1c[nH]cn1)NC(=O)[C@H](CCCC)NC(=O)[C@H](CC(C)C)NC(=O)[C@H](CCC(N)=O)NC(=O)[C@@H](NC(=O)[C@H](CCC(=O)O)NC(=O)[C@H](CO)NC(=O)[C@@H](NC(=O)[C@H](C)N)C(C)C)[C@@H](C)CC)C(C)C)C(=O)N[C@@H](CCC(N)=O)C(=O)N[C@@H](Cc1c[nH]c2ccccc12)C(=O)N[C@@H](CC(C)C)C(=O)N[C@@H](CCCNC(=N)N)C(=O)N[C@@H](CCCCN)C(=O)N[C@@H](CCCCN)C(=O)N[C@@H](CC(C)C)C(=O)N[C@@H](CCC(N)=O)C(=O)N[C@@H](CC(=O)O)C(=O)N[C@H](C(=O)N[C@@H](Cc1c[nH]cn1)C(=O)N[C@@H](CC(N)=O)C(=O)N[C@@H](Cc1ccc(O)cc1)C(N)=O)C(C)C [PTH(1–34), [Nle^8,21,Tyr^34]rPTH-(1–34)NH2]			responded	unresponsive	100 fold	100 fold
